Laboratory results reported in patent publication US20200078463A1, “COMPOSITION HAVING IMPROVED WATER SOLUBILITY AND BIOAVAILABILITY” (SAMYANG BIOPHARMACEUTICALS CORPORATION, priority 2017, published 2020).
Counter-ions that a name gives are not always drawn.

Assay: Additive screening: dissolved sorafenib in pH 1.2 buffer by HPLC
Format: physicochemical
Conditions: 100 mg sorafenib tosylate (crystalline form III) + 10 mg additive in 1 ml pH 1.2 buffer, shaken at 1,100 rpm for 24 hours, filtered 0.45 μm
Method: In order to test the content of drug included in the formulation, it was analyzed by HPLC using the following test method.
(1) Buffer preparation: After dissolving 0.77 g ammonium acetate in 1000 ml of water, the pH of the solution was adjusted to 6.8±0.05 using ammonia solutions.
(2) The solution of (1) and acetonitrile were mixed at 40:60 (v/v), and the solution filtered with a filter paper having a pore size of 0.45 μm and degassed was used as a mobile phase.
The buffer solution (1) and acetonitrile were mixed at 30:70 (v/v) to obtain a dilution solution.
1 ml of the standard solution (300 μg/ml) was precisely taken, and 2 ml of the diluted solution was added to prepare a standard solution (100 μg/ml). 1 ml of the standard solution (300 μg/ml) was precisely taken, and 4 ml of the diluted solution was added to prepare a standard solution (60 μg/ml). 1 ml of the standard solution (100 μg/ml) was precisely taken, and 4 ml of the diluted solution was added to prepare a standard solution (20 μg/ml). A calibration curve was drawn using the four standard solutions and used to calculate the content of the test solution.
Detector: ultraviolet absorbance photometer (wavelength 265 nm)
Column: Eclipse XDB-C18, 4.6 mm×150 mm, 5 μm or equivalent column
Column temperature: 27° C.
It was shaken at 1,100 rpm for 24 hours. […]

Concentration of dissolved sorafenib: 100 ng/mL
SMILES: CNC(=O)c1cc(Oc2ccc(NC(=O)Nc3ccc(Cl)c(C(F)(F)F)c3)cc2)ccn1 [No polymer, sorafenib tosylate]
